Results published in ChEMBL document CHEMBL1201862, “PubChem BioAssay data set” (2004).
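Each compound was tested at five concentrations against cells in 96-well plates for 48 hours. Abbreviation: GI50, concentration required for 50% inhibition of growth.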 The source made the active and inactive calls. Rule as the data show it: active = GI50 up to about 1.1 µM and inactive = higher.

Experiments:
Assay in all cases: growth of human tumour cells (NCI), 48 h
HCT-116 = test system: HCT-116
SNB-75 = test system: SNB-75
SN12C = test system: SN12C
SK-MEL-2 = test system: SK-MEL-2
HT-29 = test system: HT-29
SK-OV-3 = test system: SK-OV-3
MCF7 = test system: MCF7
SF-295 = test system: SF-295
NCI-H226 = test system: NCI-H226
NCI-H23 = test system: NCI-H23
K562 = test system: K562
A498 = test system: A498
Malme-3M = test system: Malme-3M
EKVX = test system: EKVX
A549 = test system: A549
U-251 = test system: U-251
SF-539 = test system: SF-539

Measured: GI50

C=C(C)C(O)C(O)c1c(OC)ccc2ccc(=O)oc12 (stereo not drawn)
inactive: HCT-116 > 100 µM | SNB-75 > 100 µM | SN12C > 100 µM | SK-MEL-2 > 100 µM | HT-29 > 100 µM | SK-OV-3 > 100 µM | MCF7 > 100 µM | SF-295 > 100 µM | NCI-H226 > 100 µM | NCI-H23 > 100 µM | K562 > 100 µM | A498 > 100 µM | Malme-3M > 100 µM | EKVX > 100 µM | A549 > 100 µM | U-251 > 100 µM | SF-539 > 100 µM

Nc1ccccc1C(=O)NNC(=O)c1ccccc1N
inactive: HCT-116 > 100 µM | SNB-75 35.5 µM | SN12C > 100 µM | SK-MEL-2 > 100 µM | HT-29 > 100 µM | SK-OV-3 > 100 µM | MCF7 > 100 µM | SF-295 > 100 µM | NCI-H226 > 100 µM | NCI-H23 > 100 µM | K562 > 100 µM | A498 > 100 µM | Malme-3M > 100 µM | EKVX > 100 µM | A549 > 100 µM | U-251 > 100 µM | SF-539 > 100 µM

Cc1nc(O)c(Cc2ccccc2O)c(-c2ccccc2)n1
inactive: HCT-116 > 100 µM | SNB-75 22.4 µM | SN12C > 100 µM | SK-MEL-2 > 100 µM | HT-29 87.5 µM | SK-OV-3 > 100 µM | MCF7 > 100 µM | SF-295 > 100 µM | NCI-H226 > 100 µM | NCI-H23 > 100 µM | K562 > 100 µM | A498 > 100 µM | Malme-3M > 100 µM | EKVX 19.1 µM | A549 > 100 µM | U-251 > 100 µM | SF-539 > 100 µM

CC(=O)N(CN1C(=O)CCC1C(=O)O)c1ccccc1 (stereo not drawn)
inactive: HCT-116 > 56 µM | SNB-75 > 56.5 µM | SN12C > 57.7 µM | SK-MEL-2 > 54.7 µM | HT-29 > 55 µM | SK-OV-3 > 56.1 µM | MCF7 > 56.8 µM | SF-295 > 52.6 µM | NCI-H226 > 52.7 µM | NCI-H23 > 56.2 µM | K562 > 53 µM | A498 > 59.7 µM | Malme-3M 29.8 µM | EKVX > 53.8 µM | A549 > 55.1 µM | U-251 > 100 µM | SF-539 > 50.6 µM
